Results on 1 molecule are retold here after patent US20220088020A1, “TREATMENT OF ALOPECIA AREATA” (LEO PHARMA A/S, priority 2015, published 2022).

Test [1] deals with C3H/HeJ mouse alopecia model. Kind of test: Experiment 1: promotion of hair growth in C3H/HeJ mouse alopecia model. It counts as in vivo. Conditions: Compound A 1% or 3% by weight in carrier, 50 μL applied to dorsal region once a day for 78 days; median of each group, FIG. 1. The procedure: (§1) An effect of promoting hair growth by Compound A was evaluated using a C3H/HeJ mouse alopecia model (Non-Patent Literature 1).
A skin specimen having a diameter of 2 to 2.5 cm was prepared from a retired C3H/HeJJcI mouse (CLEA Japan, Inc.) which had spontaneously developed alopecia universalis, and was grafted into a dorsal region of each of eight-week-old female C3H/HeJJcI mice (CLEA Japan, Inc.). Twenty weeks after the surgery, mice which developed alopecia throughout the whole bodies thereof were selected, and a carrier, 1% by weight of a test substance, 3% by weight of the test substance or a control substance was applied to the dorsal region at a volume of 50 μL once a day for 78 days. Day 1 was a day on which the application started. The carrier used was a mixture which contained white soft paraffin, hard paraffin and squalane at a blend ratio of 85:5:10. Compound A was used as the test substance. A betamethasone valerate ointment (0.12%) was used as the control substance.
The Hair Growth Index (HGI) in the dorsal region of each of the mice was determined on day 1, day 7, day 15, day 29, day 43, day 57, day 71 and day 79. […]

The subject of test [2] is C3H/HeJ mouse alopecia model. The experiment in a line: Experiment 2: promotion of hair growth in C3H/HeJ mouse alopecia model. It counts as in vivo. The following applies: Compound A ointment 0.3% or 3% by weight, 50 μL applied to dorsal region once a day for 84 days; median of each group, FIG. 2. The procedure:
as §1
A skin specimen having a diameter of 2 cm was prepared from a retired C3H/HeJJcI mouse (CLEA Japan, Inc.) which had spontaneously developed alopecia universalis, and was grafted into a dorsal region of each of eight-week-old female C3H/HeJJcI mice (CLEA Japan, Inc.). […]
The Hair Growth Index (HGI) in the dorsal region of each of the mice was determined on day 1, day 19, day 29, day 43, day 57, day 71 and day 85. The HGI for each of the mice was calculated by measuring, with naked eyes, the level of the state of hair growth (score; 0: no hair, 1: stubble, short broken hairs, 2: sparse intermediate length hairs, 3: normal length and density hairs) and the percentage (%) of the skin area in which each level of state of hair growth occurred, determining the product of the level of the state of hair growth (score) with the percentage (%) of the skin area in which its level of the state of hair growth occurred, and then summing all of the values of the products.

A further test has as its system JAK. The following applies: JAK = one or more of JAK1, JAK2, JAK3, TYK2; described in Patent Literature 1 and 2; cited from earlier work.

Consider `C[C@H]1CN(C(=O)CC#N)[C@]12CCN(c1ncnc3[nH]ccc13)C2` [Compound A, 3-[(3S,4R)-3-methyl-6-(7H-pyrrolo[2,3-d]pyrimidin-4-yl)-1,6-diazaspiro[3.4]octan-1-yl]-3-oxopropanenitrile], for which the “Hair Growth Index (HGI) in the dorsal region” value in test [1] and in test [2] was “promotion of hair growth” in each case. Besides, the JAK inhibition entry in the test with JAK is on record as “inhibit JAK”.
